One experiment deals with LSD-1 enzyme (Homo sapiens (Human), UniProt O60341). It is filed as biochemical.
Settings: not given
Here is the method:
LANCE LSD1/KDM1A demethylase assay-10 μL of 1 nM LSD-1 enzyme (ENZO BML-SE544-0050) in the assay buffer (50 mM Tris, pH 7.5, 0.01% Tween-20, 25 mM NaCl, 5 mM DTT) were preincubated for 1 hour at 25° C. with 0.8 μL compound/DMSO dotted in black 384 well polystyrene plates. […] After stopping the reactions plates were incubated for 30 minutes and read on a PHERAstar FS plate reader (BMG Labtech).
Usually IC50 stands for the concentration that inhibits the measured activity by half. The compound `Cc1ccc(-c2c(-c3ccc(C#N)cc3)cc(OC[C@@H]3CCNC3)c3nn(CC#N)c(=O)n23)cc1` [Example 5, (R)-4-(2-(cyanomethyl)-3-oxo-8-(pyrrolidin-3-ylmethoxy)-5-p-tolyl-2,3-dihydro-[1,2,4]triazolo[4,3-a]pyridin-6-yl)benzonitrile] came in with an IC50 below 50 nM. As to `Cc1ccc(-c2c(-c3ccc(C#N)cc3)cc(OC[C@@H]3CCNC3)c3nn(CC4CCCC4)c(=O)n23)cc1` [Example 7, 4-{2-(cyclopentylmethyl)-5-(4-methylphenyl)-3-oxo-8-[(3R)-pyrrolidin-3-ylmethoxy]-2,3-dihydro[1,2,4]triazolo[4,3-a]pyridin-6-yl}benzonitrile], the IC50 is below 50 nM. For `Cc1ccc(-c2c(-c3ccc(C#N)cc3)cc(OC[C@@H]3CCNC3)c3nn(Cc4ccccc4)c(=O)n23)cc1` [Example 16, 4-{2-benzyl-5-(4-methylphenyl)-3-oxo-8-[(3R)-pyrrolidin-3-ylmethoxy]-2,3-dihydro[1,2,4]triazolo[4,3-a]pyridin-6-yl}benzonitrile], the IC50 is below 50 nM.

Staying with this experiment, now noted: 1 nM LSD-1 enzyme, 1 hour preincubation at 25° C., 0.4 μM biotin-labeled histone H3 peptide substrate.
Take `Cc1ccc(-c2c(-c3ccc(C#N)cc3)cc(OC[C@@H]3CCNC3)c3nncn23)cc1` [Example 1, 4-{5-(4-methylphenyl)-8-[(3R)-pyrrolidin-3-ylmethoxy][1,2,4]triazolo[4,3-a]pyridin-6-yl}benzonitrile]: the IC50 was at most 50 nM. Same read-out and setting: to `Cc1ccc(-c2c(-c3ccc(C#N)c(F)c3)cc(OC[C@@H]3CCNC3)c3nncn23)cc1` [Example 2, 2-fluoro-4-{5-(4-methylphenyl)-8-[(3R)-pyrrolidin-3-ylmethoxy][1,2,4]triazolo[4,3-a]pyridin-6-yl}benzonitrile] belongs at most 50 nM; to `Cc1ccc(-c2c(-c3ccc(C#N)cc3)cc(OC[C@@H]3CCNC3)c3n[nH]c(=O)n23)cc1` [Example 3, 4-{5-(4-methylphenyl)-3-oxo-8-[(3R)-pyrrolidin-3-ylmethoxy]-2,3-dihydro[1,2,4]triazolo[4,3-a]pyridin-6-yl}benzonitrile], at most 50 nM. As to `Cc1ccc(-c2c(-c3ccc(C#N)cc3)cc(OC[C@@H]3CCNC3)c3nn(CCC#N)c(=O)n23)cc1` [Example 6, 4-{2-(2-cyanoethyl)-5-(4-methylphenyl)-3-oxo-8-[(3R)-pyrrolidin-3-ylmethoxy]-2,3-dihydro[1,2,4]triazolo[4,3-a]pyridin-6-yl}benzonitrile], the IC50 was at most 50 nM.

As to `Cc1ccc(-c2c(-c3ccc(C#N)cc3)cc(OC[C@@H]3CCNC3)c3nn(CC4CCNCC4)c(=O)n23)cc1` [Example 13, 4-{5-(4-methylphenyl)-3-oxo-2-(piperidin-4-ylmethyl)-8-[(3R)-pyrrolidin-3-ylmethoxy]-2,3-dihydro[1,2,4]triazolo[4,3-a]pyridin-6-yl}benzonitrile], the IC50 is at most 50 nM.

Consider `Cc1ccc(-c2c(-c3ccc(C#N)cc3)cc(OC[C@@H]3CCNC3)c3nn(CCOc4ccccc4)c(=O)n23)cc1` [Example 14, 4-{5-(4-methylphenyl)-3-oxo-2-(2-phenoxyethyl)-8-[(3R)-pyrrolidin-3-ylmethoxy]-2,3-dihydro[1,2,4]triazolo[4,3-a]pyridin-6-yl}benzonitrile], for which the IC50 is at most 50 nM. `Cc1ccc(-c2c(-c3ccc(C#N)cc3)cc(OC[C@@H]3CCNC3)c3nn(CCN(C)C)c(=O)n23)cc1` [Example 15, 4-{2-[2-(dimethylamino)ethyl]-5-(4-methylphenyl)-3-oxo-8-[(3R)-pyrrolidin-3-ylmethoxy]-2,3-dihydro[1,2,4]triazolo[4,3-a]pyridin-6-yl}benzonitrile] showed an IC50 of at most 50 nM. Compound `Cc1ccc(-c2c(-c3ccc(C#N)cc3)cc(OC[C@@H]3CCNC3)c3nn(Cc4ccc(C#N)cc4)c(=O)n23)cc1` [Example 17, 4-{2-(4-cyanobenzyl)-5-(4-methylphenyl)-3-oxo-8-[(3R)-pyrrolidin-3-ylmethoxy]-2,3-dihydro[1,2,4]triazolo[4,3-a]pyridin-6-yl}benzonitrile] yielded an IC50 of at most 50 nM.

Source of the values: patent publication US10138249B2, “Triazolopyridines and triazolopyrazines as LSD1 inhibitors” (priority 2014, dated 2018).
